Experiment: Safe solvent solubility test of compound
Assay type: physicochemical
Settings: amount of dissolution in propylene glycol monomethyl ether acetate at 23° C., ultrasonic 30 minutes, visual
Description: The solubility of the compound in propylene glycol monomethyl ether acetate was measured as the solubility of the compound in a safe solvent. The solubility was evaluated according to the following criteria utilizing the amount of dissolution in propylene glycol monomethyl ether acetate. The amount of dissolution was measured at 23° C. by precisely weighing the compound into a test tube, adding propylene glycol monomethyl ether acetate so as to attain a predetermined concentration, applying ultrasonic waves for 30 minutes in an ultrasonic cleaner, then visually observing the subsequent state of the fluid, and conducting evaluation on the basis of the concentration of the amount of complete dissolution. • A: 5.0% by mass≤Amount of dissolution • B: 3.0% by mass≤Amount of dissolution<5.0% by mass • C: Amount of dissolution<3.0% by mass (2) Storage Stability and Thin Film Formability of Resist Composition

| SMILES | Safe solvent solubility test |
| --- | --- |
| Oc1ccc([Te](Cl)(Cl)c2ccc(O)cc2)cc1 [BHPT, bis(4-hydroxyphenyl)tellurium dichloride] | A (5.0% by mass≤Amount of dissolution) |
| CC1(OC(=O)COc2ccc([Te](Cl)(Cl)c3ccc(OCC(=O)OC4(C)C5CC6CC(C5)CC4C6)cc3)cc2)C2CC3CC(C2)CC1C3 (stereo not drawn) [BHPT-ADBAC, bis(4-(2-methyl-2-adamantyloxycarbonylmethoxy)phenyl)tellurium dichloride] | A (5.0% by mass≤Amount of dissolution) |
| CC(C)(C)OC(=O)Oc1ccc([Te](Cl)(Cl)c2ccc(OC(=O)OC(C)(C)C)cc2)cc1 [BHPT-BOC, bis(tert-butoxycarboxyphenyl)tellurium dichloride] | A (5.0% by mass≤Amount of dissolution) |
| CCOC(C)Oc1ccc([Te](Cl)(Cl)c2ccc(OC(C)OCC)cc2)cc1 (stereo not drawn) [BHPT-EE, bis(ethoxyethylphenyl)tellurium dichloride] | A (5.0% by mass≤Amount of dissolution) |
| Oc1ccc([Te](Cl)(Cl)c2ccc(O)c(-c3ccccc3)c2)cc1-c1ccccc1 [Ph-BHPT, bis(3-phenyl-4-hydroxyphenyl)tellurium dichloride] | A (5.0% by mass≤Amount of dissolution) |
| CC1(OC(=O)COc2ccc([Te](Cl)(Cl)c3ccc(OCC(=O)OC4(C)C5CC6CC(C5)CC4C6)c(-c4ccccc4)c3)cc2-c2ccccc2)C2CC3CC(C2)CC1C3 (stereo not drawn) [Ph-BHPT-ADBAC] | A (5.0% by mass≤Amount of dissolution) |
| Oc1ccc([Te]c2ccc(O)c(-c3ccccc3)c2)cc1-c1ccccc1 [Ph-TDP, bis(3-phenyl-4-hydroxyphenyl)tellurium] | A (5.0% by mass≤Amount of dissolution) |
| CC1(OC(=O)COc2ccc([Te]c3ccc(OCC(=O)OC4(C)C5CC6CC(C5)CC4C6)c(-c4ccccc4)c3)cc2-c2ccccc2)C2CC3CC(C2)CC1C3 (stereo not drawn) [Ph-TDP-ADBAC] | A (5.0% by mass≤Amount of dissolution) |
| CC(C)(C)OC(=O)COc1ccc([Te]c2ccc(OCC(=O)OC(C)(C)C)cc2)cc1 [Ph-TDP-BOC] | A (5.0% by mass≤Amount of dissolution) |
| CCOC(C)Oc1ccc([Te](Cl)(Cl)c2ccc(OC(C)OCC)c(-c3ccccc3)c2)cc1-c1ccccc1 (stereo not drawn) [Ph-TDP-EE] | A (5.0% by mass≤Amount of dissolution) |
| Oc1ccc([Te]c2ccc(O)cc2)cc1 [TDP, 4,4′-telluriumdiphenol] | A (5.0% by mass≤Amount of dissolution) |
| CC1(OC(=O)COc2ccc([Te]c3ccc(OCC(=O)OC4(C)C5CC6CC(C5)CC4C6)cc3)cc2)C2CC3CC(C2)CC1C3 (stereo not drawn) [TDP-ADBAC] | A (5.0% by mass≤Amount of dissolution) |

Source: patent US11852970B2, “Material for lithography, production method therefor, composition for lithography, pattern formation method, compound, resin, and method for purifying the compound or the resin” (Mitsubishi Gas Chemical Company, Inc., priority 2015, dated 2023)
